Reference: BindingDB's records for doi:10.1021/jm800138h (Gsk, 2008)

Columns and labels:
Experiment in all cases: Enzyme Inhibition Assay
[1] = target: Beta-secretase 1 (Homo sapiens, UniProt P56817); conditions: pH 4.5; 22 °C
Description: (§1) Enzyme activity and inhibition were assayed using a fluorescent FAM-[SEVNLDAEFK]-TAMRA substrate. Control reactions with no enzyme were included in each assay. Quantification of substrate cleavage was assessed using an LJL analyst spectrophotometer (485nm excitation, 535nm emission).

[2] = target: Cathepsin D (Homo sapiens, UniProt P07339)
Description: as §1

[3] = target: T1, Beta-secretase 2 (Homo sapiens, UniProt Q9Y5Z0); conditions: pH 4.5; 22 °C
T1 sequence (Q9Y5Z0 whole entry): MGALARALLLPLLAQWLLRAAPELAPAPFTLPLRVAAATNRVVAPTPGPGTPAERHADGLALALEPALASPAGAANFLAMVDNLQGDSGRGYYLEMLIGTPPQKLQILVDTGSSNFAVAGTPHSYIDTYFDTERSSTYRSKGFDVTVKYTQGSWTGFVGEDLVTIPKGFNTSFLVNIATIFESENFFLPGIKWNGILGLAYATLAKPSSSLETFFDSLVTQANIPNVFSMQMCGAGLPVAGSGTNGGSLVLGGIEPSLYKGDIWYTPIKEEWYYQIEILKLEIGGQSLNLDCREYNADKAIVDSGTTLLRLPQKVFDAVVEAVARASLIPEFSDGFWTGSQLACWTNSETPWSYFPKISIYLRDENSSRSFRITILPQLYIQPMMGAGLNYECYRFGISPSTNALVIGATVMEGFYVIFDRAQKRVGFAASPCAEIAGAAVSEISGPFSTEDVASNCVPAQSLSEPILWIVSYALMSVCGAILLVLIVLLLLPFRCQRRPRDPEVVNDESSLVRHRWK
Description: as §1

Sequence of Beta-secretase 1 (P56817 whole entry): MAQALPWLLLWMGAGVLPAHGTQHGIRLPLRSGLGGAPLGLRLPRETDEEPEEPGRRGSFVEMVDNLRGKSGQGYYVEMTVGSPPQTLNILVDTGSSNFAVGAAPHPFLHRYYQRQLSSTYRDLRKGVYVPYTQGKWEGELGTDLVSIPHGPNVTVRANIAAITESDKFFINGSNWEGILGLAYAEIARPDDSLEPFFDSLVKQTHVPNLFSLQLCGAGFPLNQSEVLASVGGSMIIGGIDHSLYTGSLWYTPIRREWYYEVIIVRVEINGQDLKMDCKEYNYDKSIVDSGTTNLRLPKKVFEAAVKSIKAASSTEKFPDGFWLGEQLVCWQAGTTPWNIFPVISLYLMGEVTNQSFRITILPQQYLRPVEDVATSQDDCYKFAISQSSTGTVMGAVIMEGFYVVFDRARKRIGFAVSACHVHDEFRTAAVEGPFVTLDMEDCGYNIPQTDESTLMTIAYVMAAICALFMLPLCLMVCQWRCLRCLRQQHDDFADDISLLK
Sequence of Cathepsin D (P07339 65-162 limits assumed): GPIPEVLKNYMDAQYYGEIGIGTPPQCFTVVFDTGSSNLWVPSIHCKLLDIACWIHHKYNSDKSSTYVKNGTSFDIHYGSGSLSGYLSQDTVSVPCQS
Sequence of Cathepsin D (P07339 169-412 limits assumed): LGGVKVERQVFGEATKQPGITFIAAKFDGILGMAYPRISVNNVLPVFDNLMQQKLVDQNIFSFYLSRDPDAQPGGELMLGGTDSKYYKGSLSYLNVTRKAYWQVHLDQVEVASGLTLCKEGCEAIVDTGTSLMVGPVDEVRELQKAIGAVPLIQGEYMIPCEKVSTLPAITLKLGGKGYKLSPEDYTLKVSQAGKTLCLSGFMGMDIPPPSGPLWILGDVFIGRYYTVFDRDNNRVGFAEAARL

Row | Structure (SMILES) | IC50 [1] [µM] | IC50 [2] [µM] | IC50 [3] [µM]
1 | CCNc1cc(C(=O)N[C@@H](Cc2ccccc2)[C@H](O)CNC)cc(N2CCCCS2(=O)=O)c1 [3-(1,1-dioxo-1,2-thiazinan-2-yl)-5-(ethylamino)-N-[(2S,3R)-3-hydroxy-4-(methylamino)-1-phenylbutan-2-yl]benzamide] | 0.14 | > 100 | –
2 | CCc1cn2c3c(cc(C(=O)N[C@@H](Cc4ccccc4)[C@H](O)CNC(C)(C)CCCC(C)C)cc13)N(C)S(=O)(=O)CC2 [N-[(2S,3R)-4-[(2,6-dimethylheptan-2-yl)amino]-3-hydroxy-1-phenylbutan-2-yl]-3-ethyl-9-methyl-10,10-dioxo-10-thia-1,9-diazatricyclo[6.4.1.0^{4,13}]trideca-2,4(13),5,7-tetraene-6-carboxamide] | 0.005 | 1 | 0.114
3 | CCNc1cc(C(=O)N[C@@H](Cc2ccccc2)[C@H](O)CNC2CCCCC2)cc(N2CCCCS2(=O)=O)c1 [N-[(2S,3R)-4-(cyclohexylamino)-3-hydroxy-1-phenylbutan-2-yl]-3-(1,1-dioxo-1,2-thiazinan-2-yl)-5-(ethylamino)benzamide] | 0.069 | 2.34 | 4.37
4 | CCNc1cc(C(=O)N[C@@H](Cc2ccccc2)[C@H](O)CNC(C)(C)CCCC(C)C)cc(N2CCCCS2(=O)=O)c1 [N-[(2S,3R)-4-[(2,6-dimethylheptan-2-yl)amino]-3-hydroxy-1-phenylbutan-2-yl]-3-(1,1-dioxo-1,2-thiazinan-2-yl)-5-(ethylamino)benzamide] | 0.03 | 5.25 | 7.94
5 | CCc1cn2c3c(cc(C(=O)N[C@@H](Cc4ccccc4)[C@H](O)CNC4CCCCC4)cc13)N(C)S(=O)(=O)CC2 [BMCL193669 Compound 26] | 0.009 | 0.66 | 0.21
